Measurements: patent publication US8952024B2, “Herbicidal pyrimidone derivatives” (E I du Pont de Nemours and Company, priority 2009, dated 2015)

What was measured:
Experiment in all cases: Test B pre-/postemergence plant response
Type in all cases: in vivo
kochia (Kochia scoparia) = tested on: kochia (Kochia scoparia)
Method in brief: (§1)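 Visually scored on a 0 to 100 scale after 13 to 15 days in greenhouse versus controls. Treatments were preemergence on seeded loam/sand soil and postemergence on 1- to 4-leaf plants.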

[1] = tested on: woolly cupgrass (Eriochloa villosa)
Method in brief: as §1

[2] = tested on: Surinam grass (Brachiaria decumbens)
Method in brief: as §1

[3] = tested on: lambsquarters (Chenopodium album)
Method in brief: as §1

[4] = tested on: downy bromegrass (Bromus tectorum)
Method in brief: as §1

[5] = tested on: bermudagrass (Cynodon dactylon)
Method in brief: as §1

[6] = tested on: johnsongrass (Sorghum halepense)
Method in brief: as §1

[7] = tested on: velvetleaf (Abutilon theophrasti)
Method in brief: as §1

[8] = tested on: goosegrass (Eleusine indica)
Method in brief: as §1

[9] = tested on: Italian ryegrass (Lolium multiflorum)
Method in brief: as §1

corn (Zea mays) = tested on: corn (Zea mays)
Method in brief: as §1

[10] = tested on: blackgrass (Alopecurus myosuroides)
Method in brief: as §1

[11] = tested on: ragweed (common ragweed, Ambrosia elatior)
Method in brief: as §1

[12] = tested on: giant foxtail (Setaria faberii)
Method in brief: as §1

[13] = tested on: green foxtail (Setaria viridis)
Method in brief: as §1

[14] = tested on: large crabgrass (Digitaria sanguinalis)
Method in brief: as §1

[15] = tested on: yellow nutsedge (Cyperus esculentus)
Method in brief: as §1

[16] = 250 g ai/ha, Preemergence, 0 to 100 scale
[17] = Postemergence, 31 g ai/ha, scale 0 to 100 (0 no effect, 100 complete control)
[18] = Postemergence, 62 g ai/ha, scale 0 (no effect) to 100 (complete control), 13 to 15 days
[19] = Postemergence, 125 g ai/ha, visual rating after 13 to 15 days, scale 0 (no effect) to 100 (complete control)
[20] = Postemergence, 250 g ai/ha, scale 0 to 100
[21] = Preemergence, 31 g ai/ha, scale 0 to 100 (0 no effect, 100 complete control)
[22] = Preemergence, 62 g ai/ha, scale 0 to 100, 0 no effect, 100 complete control
[23] = Preemergence, 125 g ai/ha, 0 to 100 scale

With “5-[(2-hydroxy-6-oxo-1-cyclohexen-1-yl)carbonyl]-3-(2-methoxyethyl)-2-(3-thienyl)-4(3H)-pyrimidinone [Compound 97]” the “Plant response rating, Kochia” value (kochia (Kochia scoparia); [16]) was 100, the “Plant response rating, Kochia” value (kochia (Kochia scoparia); [17]) was 10 and the “Plant response rating, Kochia” value (kochia (Kochia scoparia); [18]) was 15. The “Plant response rating, Kochia” value (kochia (Kochia scoparia); [19]) was 15, the “Kochia plant response rating” value (kochia (Kochia scoparia); [20]) was 20 and the “Plant response rating, Kochia” value (kochia (Kochia scoparia); [21]) was 0. The “Plant response rating, Kochia” value (kochia (Kochia scoparia); [22]) was 50, the “Kochia plant response rating” value (kochia (Kochia scoparia); [23]) was 100 and the “Plant response rating, Cupgrass, Woolly” value [1, 16] was 40. For the same substance, the “Plant response rating, Cupgrass, Woolly” value [1, 17] was 60, the “Plant response rating, Cupgrass, Woolly” value [1, 18] was 70 and the “Plant response rating, Cupgrass, Woolly” value [1, 19] was 70. The “Cupgrass, Woolly plant response rating” value [1, 20] was 75, the “Plant response rating, Cupgrass, Woolly” value [1, 21] was 0 and the “Plant response rating, Cupgrass, Woolly” value [1, 22] was 10. The “Cupgrass, Woolly plant response rating” value [1, 23] was 35, the “Plant response rating, Surinam Grass” value [2, 16] was 80 and the “Plant response rating, Surinam Grass” value [2, 17] was 60. The “Plant response rating, Surinam Grass” value [2, 18] was 70, the “Plant response rating, Surinam Grass” value [2, 19] was 70 and the “Surinam Grass plant response rating” value [2, 20] was 80. For the same substance, the “Plant response rating, Surinam Grass” value [2, 21] was 0, the “Plant response rating, Surinam Grass” value [2, 22] was 10 and the “Surinam Grass plant response rating” value [2, 23] was 15. For the same substance, the “Plant response rating, Lambsquarters” value [3, 16] was 100, the “Plant response rating, Lambsquarters” value [3, 17] was 80 and the “Plant response rating, Lambsquarters” value [3, 18] was 80. The “Plant response rating, Lambsquarters” value [3, 19] was 90, the “Lambsquarters plant response rating” value [3, 20] was 95 and the “Plant response rating, Lambsquarters” value [3, 21] was 100. For the same substance, the “Plant response rating, Lambsquarters” value [3, 22] was 100, the “Lambsquarters plant response rating” value [3, 23] was 100 and the “Plant response rating, Bromegrass, Downy” value [4, 16] was 0. For the same substance, the “Plant response rating, Bromegrass, Downy” value [4, 17] was 0, the “Plant response rating, Bromegrass, Downy” value [4, 18] was 0 and the “Plant response rating, Bromegrass, Downy” value [4, 19] was 10. For the same substance, the “Bromegrass, Downy plant response rating” value [4, 20] was 20, the “Plant response rating, Bromegrass, Downy” value [4, 21] was 0 and the “Plant response rating, Bromegrass, Downy” value [4, 22] was 0. For the same substance, the “Bromegrass, Downy plant response rating” value [4, 23] was 0, the “Plant response rating, Bermudagrass” value [5, 16] was 100 and the “Plant response rating, Bermudagrass” value [5, 17] was 70. For the same substance, the “Plant response rating, Bermudagrass” value [5, 18] was 75, the “Plant response rating, Bermudagrass” value ([5]; Postemergence, 125 g ai/ha, scale 0 to 100 (0 no effect, 100 complete control), 13 to 15 days) was 90 and the “Bermudagrass plant response rating” value [5, 20] was 95. The “Plant response rating, Bermudagrass” value [5, 21] was 45, the “Plant response rating, Bermudagrass” value [5, 22] was 80 and the “Bermudagrass plant response rating” value [5, 23] was 100. The “Plant response rating, Johnsongrass” value [6, 16] was 75, the “Plant response rating, Johnsongrass” value [6, 17] was 0 and the “Plant response rating, Johnsongrass” value [6, 18] was 55. For the same substance, the “Plant response rating, Johnsongrass” value [6, 19] was 60, the “Johnsongrass plant response rating” value [6, 20] was 75 and the “Plant response rating, Johnsongrass” value [6, 21] was 0. For the same substance, the “Plant response rating, Johnsongrass” value [6, 22] was 10, the “Johnsongrass plant response rating” value [6, 23] was 60 and the “Plant response rating, Velvetleaf” value [7, 16] was 100. The “Plant response rating, Velvetleaf” value [7, 17] was 70, the “Plant response rating, Velvetleaf” value [7, 18] was 70 and the “Plant response rating, Velvetleaf” value [7, 19] was 75. For the same substance, the “Velvetleaf plant response rating” value [7, 20] was 85, the “Plant response rating, Velvetleaf” value [7, 21] was 55 and the “Plant response rating, Velvetleaf” value [7, 22] was 100. For the same substance, the “Velvetleaf plant response rating” value [7, 23] was 100, the “Plant response rating, Goosegrass” value [8, 16] was 98 and the “Plant response rating, Goosegrass” value [8, 17] was 45. For the same substance, the “Plant response rating, Goosegrass” value [8, 18] was 75, the “Plant response rating, Goosegrass” value [8, 19] was 95 and the “Goosegrass plant response rating” value [8, 20] was 98. The “Plant response rating, Goosegrass” value [8, 21] was 0, the “Goosegrass plant response rating” value [8, 23] was 95 and the “Plant response rating, Ryegrass, Italian” value [9, 16] was 0. For the same substance, the “Plant response rating, Ryegrass, Italian” value [9, 17] was 0, the “Plant response rating, Ryegrass, Italian” value [9, 18] was 0 and the “Plant response rating, Ryegrass, Italian” value [9, 19] was 0. For the same substance, the “Ryegrass, Italian plant response rating” value [9, 20] was 20, the “Plant response rating, Ryegrass, Italian” value [9, 21] was 0 and the “Plant response rating, Ryegrass, Italian” value [9, 22] was 0. The “Ryegrass, Italian plant response rating” value [9, 23] was 0, the “Plant response rating, Corn” value (corn (Zea mays); [16]) was 0 and the “Plant response rating, Corn” value (corn (Zea mays); [17]) was 15. The “Plant response rating, Corn” value (corn (Zea mays); [18]) was 15, the “Plant response rating, Corn” value (corn (Zea mays); [19]) was 45 and the “Corn plant response rating” value (corn (Zea mays); [20]) was 65. For the same substance, the “Plant response rating, Corn” value (corn (Zea mays); [21]) was 0, the “Plant response rating, Corn” value (corn (Zea mays); [22]) was 0 and the “Corn plant response rating” value (corn (Zea mays); [23]) was 0. For the same substance, the “Plant response rating, Blackgrass” value [10, 16] was 20, the “Plant response rating, Blackgrass” value [10, 17] was 0 and the “Plant response rating, Blackgrass” value [10, 18] was 0. The “Plant response rating, Blackgrass” value [10, 19] was 50, the “Blackgrass plant response rating” value [10, 20] was 50 and the “Plant response rating, Blackgrass” value [10, 21] was 0. For the same substance, the “Plant response rating, Blackgrass” value [10, 22] was 0, the “Blackgrass plant response rating” value [10, 23] was 0 and the “Plant response rating, Ragweed” value [11, 16] was 100. For the same substance, the “Plant response rating, Ragweed” value [11, 17] was 75, the “Plant response rating, Ragweed” value [11, 18] was 80 and the “Plant response rating, Ragweed” value [11, 19] was 90. For the same substance, the “Ragweed plant response rating” value [11, 20] was 98, the “Plant response rating, Ragweed” value [11, 21] was 98 and the “Plant response rating, Ragweed” value [11, 22] was 100. The “Ragweed plant response rating” value [11, 23] was 100, the “Plant response rating, Foxtail, Giant” value [12, 16] was 45 and the “Plant response rating, Foxtail, Giant” value [12, 17] was 70. The “Plant response rating, Foxtail, Giant” value [12, 18] was 75, the “Plant response rating, Foxtail, Giant” value [12, 19] was 80 and the “Foxtail, Giant plant response rating” value [12, 20] was 95. For the same substance, the “Plant response rating, Foxtail, Giant” value [12, 21] was 0, the “Plant response rating, Foxtail, Giant” value [12, 22] was 0 and the “Foxtail, Giant plant response rating” value [12, 23] was 0. The “Plant response rating, Foxtail, Green” value [13, 16] was 30, the “Plant response rating, Foxtail, Green” value [13, 17] was 10 and the “Plant response rating, Foxtail, Green” value [13, 18] was 25. For the same substance, the “Plant response rating, Foxtail, Green” value [13, 19] was 70, the “Foxtail, Green plant response rating” value [13, 20] was 70 and the “Plant response rating, Foxtail, Green” value [13, 21] was 0. For the same substance, the “Plant response rating, Foxtail, Green” value [13, 22] was 0, the “Foxtail, Green plant response rating” value [13, 23] was 0 and the “Plant response rating, Crabgrass, Large” value [14, 16] was 95. The “Plant response rating, Crabgrass, Large” value [14, 17] was 65, the “Plant response rating, Crabgrass, Large” value [14, 18] was 70 and the “Plant response rating, Crabgrass, Large” value [14, 19] was 75. For the same substance, the “Crabgrass, Large plant response rating” value [14, 20] was 80, the “Plant response rating, Crabgrass, Large” value [14, 21] was 0 and the “Plant response rating, Crabgrass, Large” value [14, 22] was 0. The “Crabgrass, Large plant response rating” value [14, 23] was 70, the “Plant response rating, Nutsedge, Yellow” value [15, 16] was 75 and the “Plant response rating, Nutsedge, Yellow” value [15, 17] was 15. For the same substance, the “Plant response rating, Nutsedge, Yellow” value [15, 18] was 55, the “Plant response rating, Nutsedge, Yellow” value [15, 19] was 60 and the “Nutsedge, Yellow plant response rating” value [15, 20] was 75. The “Plant response rating, Nutsedge, Yellow” value [15, 21] was 0, the “Plant response rating, Nutsedge, Yellow” value [15, 22] was 0 and the “Nutsedge, Yellow plant response rating” value [15, 23] was 55.
